From patent US20120252721A1 (priority 2011, published 2012) come the findings set out here.

The structures appear in SMILES notation.

The test system of assay [1] is HCV Con1 subgenomic replicon (GS4.1 cells). Kind of assay: HCV replicon assay (NS5A ELISA, 72 hrs). The conditions noted are these: Hepatitis C virus. Format: cell-based. In short, it runs like this: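 GS4.1 cells (Huh-7 carrying the Con1 subgenomic replicon) were seeded at 7.5×10^3 cells/well and dosed 3 h later with ten 2-fold dilutions (top 75 μM) or a single 15 μM in 0.5% DMSO, then held 72 h at 37 °C. NS5A was quantified by cell ELISA (mAb A-236, OPD, A492), and EC50s came from four-parameter sigmoidal fits.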
Background: Replicon systems follow genome replication, usually without infectious particles.

Assay [2] relates to ZS11-luc replicon, NS3-D168V. The assay is described as follows: Luciferase replicon transient transfection assay, NS3-D168V. The conditions noted are these: for EC50: Hepatitis C virus. The assay is classed as cell-based, hepatitis C virus. On the procedure: (§1) The luciferase replicon transient transfection assay measures the ability of a test compound to inhibit the replication of a transiently-transfected HCV luciferase-bearing wild-type or mutant replicon in cured human hepatoma cells (Huh7.5). The inhibition of HCV replication was measured by quantification of luciferase protein expression. This assay has been validated using a panel of genotype 1a and 1b replicons bearing mutations known to be associated with resistance to BMS-790052. Briefly, subconfluent Huh7.5 cells were electroporated with 10 μg of wild-type or mutant luciferase-bearing HCV replicon RNA. The cells were then seeded in 96-well opaque white plates at 3×10^4 cells/well in 150 μL/well and incubated for 4 hrs at 37° C./5% CO2. Ten 1:5 serial dilutions of each test compound were made in media (DMEM containing glucose, L-glutamine and sodium pyruvate, 10% fetal bovine serum, 100 IU/mL penicillin, 100 μg/mL streptomycin, 2 mM GlutaMAX, and 1×MEM non-essential amino acids (Mediatech, Inc. and Invitrogen Corp.)) at concentrations that were 4× higher than the final concentrations to be tested and 50 μL/well was added to the transfected cells. Untreated, mock-transfected cells served as a negative control of luciferase expression. The plates were incubated at 37° C./5% CO2 for 4 days whereupon the media was removed and 50 μL of ONE-glo luciferase substrate (Promega) was added to each well. The plates were agitated on a rotating platform at room temperature for 3 min and read in a Victor^3V microplate reader (Perkin-Elmer) using a 700 nm cut-off filter with a 1 sec read time. EC50 values were calculated from dose response curves from the resulting best-fit equations determined by Microsoft Excel and XLfit 4.1 software.
(§2) To determine the replication capacity of each mutant relative to the wild-type parental replicon, transfected cells were plated on two plates and were not treated with compound. Luciferase activity was measured at time points of 4 hrs and 4 days after plating for each replicon. Replication capacity was calculated by dividing the day 4 CPS by the 4 hour CPS for each replicon and determining the percentage present for each mutant replicon relative to wild-type replicon values. The NS3, NS4B, and NS5B mutants were prepared and tested according to the methods described herein.

Assay [3] relates to ZS11-luc Y93N (HCV genotype 1b replicon). Kind of assay: Luciferase replicon transient transfection assay, ZS11-luc Y93N. The assay is classed as cell-based, hepatitis C virus. As to conditions: for EC50: Hepatitis C virus, 96 h, Huh7.5 cells, 4 days. On the procedure:
as §1

In assay [4] the test system is HCV genotype 1a replicon, NS4B E15G. The assay is described as follows: Luciferase replicon transient transfection assay, genotype 1a NS4B E15G. Format: cell-based, hepatitis C virus. The conditions noted are these: for EC50: Hepatitis C virus, HCV region NS4B, mutation E15G; for Ratio: NS4B E15G. On the procedure: as §1, §2
Assay [5] has as its system 1a-luc Q30R (HCV genotype 1a replicon). The assay is described as follows: Luciferase replicon transient transfection assay, 1a-luc Q30R. Format: cell-based, hepatitis C virus. As to conditions: for EC50: Hepatitis C virus, 96 h, Huh7.5 cells, 4 days. On the procedure: as §1
Assay [6] relates to HCV genotype 1b replicon, NS5B S282T. The assay is described as follows: Luciferase replicon transient transfection assay, genotype 1b NS5B S282T. Format: cell-based, hepatitis C virus. Here is the method: (§3) The luciferase replicon transient transfection assay measures the ability of a test compound to inhibit the replication of a transiently-transfected HCV luciferase-bearing wild-type or mutant replicon in cured human hepatoma cells (Huh7.5). The inhibition of HCV replication was measured by quantification of luciferase protein expression. This assay has been validated using a panel of genotype 1a and 1b replicons bearing mutations known to be associated with resistance to BMS-790052. Briefly, subconfluent Huh7.5 cells were electroporated with 10 μg of wild-type or mutant luciferase-bearing HCV replicon RNA. The cells were then seeded in 96-well opaque white plates at 3×10^4 cells/well in 150 μL/well and incubated for 4 hrs at 37° C./5% CO2. […] The plates were agitated on a rotating platform at room temperature for 3 min and read in a Victor^3V microplate reader (Perkin-Elmer) using a 700 nm cut-off filter with a 1 sec read time. EC50 values were calculated from dose response curves from the resulting best-fit equations determined by Microsoft Excel and XLfit 4.1 software.
(§4) To determine the replication capacity of each mutant relative to the wild-type parental replicon, transfected cells were plated on two plates and were not treated with compound. Luciferase activity was measured at time points of 4 hrs and 4 days after plating for each replicon. […]

The subject of assay [7] is HCV genotype 1b replicon, NS5B M414T. Kind of assay: Luciferase replicon transient transfection assay, genotype 1b NS5B M414T. The assay is classed as cell-based, hepatitis C virus. Here is the method:
as §3, §4

The test system of assay [8] is ZS11-luc R30E (HCV genotype 1b replicon). Kind of assay: Luciferase replicon transient transfection assay, ZS11-luc R30E. Format: cell-based, hepatitis C virus. The conditions noted are these: for EC50: Hepatitis C virus, 96 h, Huh7.5 cells, 4 days. Here is the method: as §1
Assay [9] concerns HCV genotype 1b replicon, NS5B C316Y. Kind of assay: Luciferase replicon transient transfection assay, genotype 1b NS5B C316Y. The assay is classed as cell-based, hepatitis C virus. On the procedure: as §3, §4
For assay [10], the system named is 1a-luc L31F (HCV genotype 1a replicon). Kind of assay: Luciferase replicon transient transfection assay, 1a-luc L31F. The conditions noted are these: for EC50: Hepatitis C virus, 96 h, Huh7.5 cells, 4 days. Format: cell-based, hepatitis C virus. Here is the method:
as §1

Assay [11] relates to 1a-luc Q30K (HCV genotype 1a replicon). The assay is described as follows: Luciferase replicon transient transfection assay, 1a-luc Q30K. Format: cell-based, hepatitis C virus. As to conditions: for EC50: Hepatitis C virus, 96 h, Huh7.5 cells, 4 days. Here is the method:
as §1

In [1], `COC(=O)N[C@H](C(=O)N1CCC[C@H]1c1ncc(-c2ccc(-c3csc4c(-c5cnc([C@@H]6CCCN6C(=O)[C@@H](NC(=O)OC)C(C)C)[nH]5)csc34)cc2)[nH]1)C(C)C` [Compound A15, [(S)-1-((S)-2-{4-[4-(6-{2-[(S)-1-((S)-2-methoxycarbonylamino-3-methyl-butyryl)-pyrrolidin-2-yl]-3H-imidazol-4-yl}-thieno[3,2-b]thiophen-3-yl)-phenyl]-1H-imidazol-2-yl}-pyrrolidine-1-carbonyl)-2-methyl-propyl]-carbamic acid methyl ester] returned an EC50 of less than 1 nM.

In assay [1], `COC(=O)N[C@H](C(=O)N1CCC[C@H]1c1ncc(-c2ccc(-c3csc4c(-c5cnc([C@@H]6CCCN6C(=O)[C@H](NC(=O)OC(C)(C)C)c6ccccc6)[nH]5)csc34)cc2)[nH]1)C(C)C` [Compound A111, [(S)-1-((S)-2-{4-[4-(6-{(S)-2-[1-((R)-2-tert-butoxycarbonylamino-2-phenyl-acetyl)-pyrrolidin-2-yl]-3H-imidazol-4-yl}-thieno[3,2-b]thiophen-3-yl)-phenyl]-1H-imidazol-2-yl}-pyrrolidine-1-carbonyl)-2-methyl-propyl]-carbamic acid methyl ester] displayed an EC50 of less than 1 nM.

As to `COC(=O)N[C@H](C(=O)N1CCC[C@H]1c1nc2cc(-c3csc4c(-c5ccc(-c6cnc([C@@H]7CCCN7C(=O)[C@H](NC(=O)OC)c7ccccc7)[nH]6)cc5)csc34)ccc2[nH]1)C(C)C` [Compound A169, [(S)-1-((S)-2-{6-[6-(4-{(S)-2-[1-((R)-2-methoxycarbonylamino-2-phenyl-acetyl)-pyrrolidin-2-yl]-3H-imidazol-4-yl}-phenyl)-thieno[3,2-b]thiophen-3-yl]-1H-benzoimidazol-2-yl}-pyrrolidine-1-carbonyl)-2-methyl-propyl]-carbamic acid methyl ester], the EC50 in assay [2] worked out at 0.0018 nM; in [3], 0.4 nM; in assay [4], 0.003 nM; in assay [5] it was 0.02 nM; in assay [6] (Hepatitis C virus, genotype 1b, NS5B mutation S282T (confers resistance to 2′-C-Methylnucleoside)) it was 0.0014 nM; in assay [7] (Hepatitis C virus, genotype 1b, NS5B mutation M414T (confers resistance to Benzothiadiazine)), 0.0018 nM. Besides, the EC50 in [8] was 0.003 nM; in [9] (Hepatitis C virus, genotype 1b, NS5B mutation C316Y (confers resistance to Benzofuran/Benzothiadiazine)), 0.0023 nM; in [10], 0.15 nM; in assay [11], 0.7 nM. Also, the Ratio in assay [2] is given as 1.04; in assay [3], 146; in assay [4] it was 1.52; in assay [5] it was 10; in assay [6] ({}) it was 0.83; in [7] ({}) it was 1.05. In addition, the Ratio came out at 1 in assay [8], 1.37 in [9] ({}), 68 in [10] and 310 in [11].

Regarding `COC(=O)N[C@H](C(=O)N1CCC[C@H]1c1ncc(-c2ccc(-c3csc4c(-c5ccc6[nH]c([C@@H]7CCCN7C(=O)[C@H](NC(=O)OC)c7ccccc7)nc6c5)csc34)cc2)[nH]1)C(C)C` [Compound A172, [(S)-1-((S)-2-{5-[4-(6-{(S)-2-[1-((R)-2-Methoxycarbonylamino-2-phenyl-acetyl)-pyrrolidin-2-yl]-3H-benzoimidazol-5-yl}-thieno[3,2-b]thiophen-3-yl)-phenyl]-1H-imidazol-2-yl}-pyrrolidine-1-carbonyl)-2-methyl-propyl]-carbamic acid methyl ester], the EC50 worked out at 0.0024 nM in [2]; 0.3 nM in assay [3]; 0.006 nM in [4]; 0.04 nM in assay [5]; 0.006 nM in assay [8]; 0.3 nM in assay [10]. The same compound yielded an EC50 in assay [11] of 1 nM. For the same compound, the Ratio is 1.04 in assay [2]; 65 in assay [3]; 1.68 in assay [4]; 10 in [5]; 1 in [8]; 67 in assay [10]. In assay [11], the Ratio was 317.

Broadly, the EC50 is the concentration at which the effect is half-maximal. Read a high EC50 as weaker potency.
